Article PMC4490784, “Compensatory induction of MYC expression by sustained CDK9 inhibition via a BRD4-dependent mechanism” (eLife, 2015)

Columns and labels:
Assay in all cases: KINOMEscan binding assay
EGFR = target: T1, EGFR (Homo sapiens, UniProt P00533)
T1 construct: purchased DiscoveRx KINOMEscan
Outline: (§1)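 Panel of >400 kinases screened by active-site competition binding, compound at 1 and 10 µM.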

PIK3C2B = target: T2, PIK3C2B (Homo sapiens, UniProt O00750); conditions: read-out: % Retention on Solid Support
T2 construct: purchased DiscoveRx KINOMEscan
Outline: as §1

LCK = target: T3, LCK (Homo sapiens, UniProt P06239); conditions: read-out: % Retention on Solid Support
T3 construct: purchased DiscoveRx KINOMEscan
T3 sequence (P06239 whole entry): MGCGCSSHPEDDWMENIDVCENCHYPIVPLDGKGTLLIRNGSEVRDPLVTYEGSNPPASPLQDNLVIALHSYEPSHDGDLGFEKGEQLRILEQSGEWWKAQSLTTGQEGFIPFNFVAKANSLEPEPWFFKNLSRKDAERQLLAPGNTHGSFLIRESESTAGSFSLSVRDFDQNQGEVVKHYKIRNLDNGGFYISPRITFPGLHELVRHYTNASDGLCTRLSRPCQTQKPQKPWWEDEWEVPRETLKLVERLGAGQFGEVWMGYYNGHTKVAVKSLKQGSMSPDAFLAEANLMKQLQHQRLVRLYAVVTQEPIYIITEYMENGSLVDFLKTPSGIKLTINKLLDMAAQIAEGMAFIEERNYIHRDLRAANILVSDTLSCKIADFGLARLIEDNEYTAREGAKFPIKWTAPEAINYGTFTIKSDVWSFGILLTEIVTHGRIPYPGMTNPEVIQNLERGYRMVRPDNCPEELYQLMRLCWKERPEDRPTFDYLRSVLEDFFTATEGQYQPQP
Outline: as §1

CLK1 = target: T4, CLK1 (Homo sapiens, UniProt P49759); conditions: read-out: % Retention on Solid Support
T4 construct: purchased DiscoveRx KINOMEscan
Outline: as §1

PKAC-alpha = target: T5, PKAC-alpha (Homo sapiens, UniProt P17612); conditions: read-out: % Retention on Solid Support
T5 construct: purchased DiscoveRx KINOMEscan
Outline: as §1

MAST1 = target: T6, MAST1 (Homo sapiens, UniProt Q9Y2H9); conditions: read-out: % Retention on Solid Support
T6 construct: purchased DiscoveRx KINOMEscan
T6 sequence (Q9Y2H9 whole entry): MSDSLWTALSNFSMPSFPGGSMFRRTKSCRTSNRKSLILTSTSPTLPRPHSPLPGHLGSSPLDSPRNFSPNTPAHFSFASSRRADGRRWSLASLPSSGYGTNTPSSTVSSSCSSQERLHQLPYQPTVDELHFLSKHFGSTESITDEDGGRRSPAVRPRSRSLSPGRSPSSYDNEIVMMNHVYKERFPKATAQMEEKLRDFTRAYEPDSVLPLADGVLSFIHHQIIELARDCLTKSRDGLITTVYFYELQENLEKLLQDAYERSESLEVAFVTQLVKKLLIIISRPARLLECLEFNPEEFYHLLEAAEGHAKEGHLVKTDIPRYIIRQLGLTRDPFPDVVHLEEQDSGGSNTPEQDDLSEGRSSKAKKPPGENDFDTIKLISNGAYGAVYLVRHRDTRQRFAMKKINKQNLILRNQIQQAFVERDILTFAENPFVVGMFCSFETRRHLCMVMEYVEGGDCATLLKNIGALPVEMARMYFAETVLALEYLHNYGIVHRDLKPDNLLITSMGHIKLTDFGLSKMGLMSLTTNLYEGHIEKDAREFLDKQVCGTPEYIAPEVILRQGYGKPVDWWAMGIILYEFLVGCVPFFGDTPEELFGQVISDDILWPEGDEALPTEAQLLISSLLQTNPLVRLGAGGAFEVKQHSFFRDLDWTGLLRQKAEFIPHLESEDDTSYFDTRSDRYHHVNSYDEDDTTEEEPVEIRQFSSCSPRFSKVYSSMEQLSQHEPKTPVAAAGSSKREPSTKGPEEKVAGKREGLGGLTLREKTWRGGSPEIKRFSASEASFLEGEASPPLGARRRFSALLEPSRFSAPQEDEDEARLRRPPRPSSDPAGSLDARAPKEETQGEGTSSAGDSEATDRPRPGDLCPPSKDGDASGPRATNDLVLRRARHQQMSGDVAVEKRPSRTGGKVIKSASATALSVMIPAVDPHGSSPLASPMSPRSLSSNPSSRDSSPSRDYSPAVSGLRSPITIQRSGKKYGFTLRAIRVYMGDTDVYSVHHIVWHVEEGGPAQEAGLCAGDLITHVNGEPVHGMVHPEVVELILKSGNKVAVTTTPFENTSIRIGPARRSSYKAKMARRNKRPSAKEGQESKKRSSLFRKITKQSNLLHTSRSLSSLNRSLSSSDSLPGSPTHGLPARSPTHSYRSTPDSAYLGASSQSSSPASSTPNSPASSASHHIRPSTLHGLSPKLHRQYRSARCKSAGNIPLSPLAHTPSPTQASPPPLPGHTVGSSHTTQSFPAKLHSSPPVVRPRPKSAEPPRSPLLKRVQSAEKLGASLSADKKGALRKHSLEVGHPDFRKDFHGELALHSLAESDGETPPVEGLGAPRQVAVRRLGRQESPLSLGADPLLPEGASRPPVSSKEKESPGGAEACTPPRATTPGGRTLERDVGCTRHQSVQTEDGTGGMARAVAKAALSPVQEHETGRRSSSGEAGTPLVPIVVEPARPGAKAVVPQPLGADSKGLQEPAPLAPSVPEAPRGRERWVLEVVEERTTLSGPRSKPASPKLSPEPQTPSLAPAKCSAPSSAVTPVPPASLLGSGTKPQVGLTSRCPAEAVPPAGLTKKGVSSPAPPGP
Outline: as §1

INSR = target: T7, INSR (Homo sapiens, UniProt P06213); conditions: read-out: % Retention on Solid Support
T7 construct: purchased DiscoveRx KINOMEscan
T7 sequence (P06213 28-1382): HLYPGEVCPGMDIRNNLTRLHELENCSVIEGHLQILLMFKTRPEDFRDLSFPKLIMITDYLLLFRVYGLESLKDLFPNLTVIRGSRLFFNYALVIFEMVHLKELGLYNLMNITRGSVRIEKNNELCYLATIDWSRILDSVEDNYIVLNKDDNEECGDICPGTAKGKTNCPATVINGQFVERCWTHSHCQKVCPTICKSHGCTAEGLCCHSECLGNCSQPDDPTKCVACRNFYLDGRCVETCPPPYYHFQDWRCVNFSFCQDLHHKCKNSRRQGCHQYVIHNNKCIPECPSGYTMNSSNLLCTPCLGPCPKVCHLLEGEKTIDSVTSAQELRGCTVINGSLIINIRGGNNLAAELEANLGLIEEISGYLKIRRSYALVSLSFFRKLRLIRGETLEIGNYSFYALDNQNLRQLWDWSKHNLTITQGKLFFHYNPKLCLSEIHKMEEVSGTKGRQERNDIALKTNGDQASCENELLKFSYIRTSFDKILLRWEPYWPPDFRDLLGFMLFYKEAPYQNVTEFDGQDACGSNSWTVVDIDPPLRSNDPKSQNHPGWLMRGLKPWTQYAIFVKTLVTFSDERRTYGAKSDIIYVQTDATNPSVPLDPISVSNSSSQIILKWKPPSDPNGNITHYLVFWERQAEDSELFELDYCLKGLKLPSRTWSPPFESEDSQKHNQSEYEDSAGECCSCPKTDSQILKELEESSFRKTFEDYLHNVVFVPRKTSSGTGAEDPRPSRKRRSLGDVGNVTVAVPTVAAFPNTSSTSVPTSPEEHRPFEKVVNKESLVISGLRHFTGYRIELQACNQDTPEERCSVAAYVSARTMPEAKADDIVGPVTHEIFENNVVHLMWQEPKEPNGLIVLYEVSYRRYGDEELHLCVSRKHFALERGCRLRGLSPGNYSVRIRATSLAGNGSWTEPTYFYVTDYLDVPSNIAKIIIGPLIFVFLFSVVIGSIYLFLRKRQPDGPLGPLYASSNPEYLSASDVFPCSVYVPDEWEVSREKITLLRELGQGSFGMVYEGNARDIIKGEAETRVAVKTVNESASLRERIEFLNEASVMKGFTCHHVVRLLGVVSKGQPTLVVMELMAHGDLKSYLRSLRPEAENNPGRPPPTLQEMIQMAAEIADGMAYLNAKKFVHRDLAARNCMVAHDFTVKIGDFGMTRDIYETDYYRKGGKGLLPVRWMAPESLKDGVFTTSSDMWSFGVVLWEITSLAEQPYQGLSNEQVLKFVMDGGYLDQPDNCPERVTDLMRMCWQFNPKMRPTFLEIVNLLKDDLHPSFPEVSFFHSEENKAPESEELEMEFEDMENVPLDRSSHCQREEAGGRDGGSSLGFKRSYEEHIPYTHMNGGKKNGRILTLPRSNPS
Outline: as §1

CSNK1G3 = target: T8, CSNK1G3 (Homo sapiens, UniProt Q9Y6M4)
T8 construct: purchased DiscoveRx KINOMEscan
Outline: as §1

NEK1 = target: T9, NEK1 (Homo sapiens, UniProt Q96PY6); conditions: read-out: % Retention on Solid Support
T9 construct: purchased DiscoveRx KINOMEscan
Outline: as §1

FLT3(D835H) = target: T10, FLT3(D835H) (Homo sapiens, UniProt P36888, D835H); conditions: read-out: % Retention on Solid Support
T10 construct: purchased DiscoveRx KINOMEscan
Outline: as §1

PIK3CA(E542K) = target: T11, PIK3CA(E542K) (Homo sapiens, UniProt P42336, E542K); conditions: read-out: % Retention on Solid Support
T11 construct: purchased DiscoveRx KINOMEscan
Outline: as §1

FGFR1 = target: T12, FGFR1 (Homo sapiens, UniProt P11362); conditions: read-out: % Retention on Solid Support
T12 construct: purchased DiscoveRx KINOMEscan
Outline: as §1

TGFBR1 = target: T13, TGFBR1 (Homo sapiens, UniProt P36897); conditions: read-out: % Retention on Solid Support
T13 construct: purchased DiscoveRx KINOMEscan
Outline: as §1

PLK1 = target: T14, PLK1 (Homo sapiens, UniProt P53350); conditions: read-out: % Retention on Solid Support
T14 construct: purchased DiscoveRx KINOMEscan
Outline: as §1

OSR1 = target: T15, OSR1 (Homo sapiens, UniProt O95747); conditions: read-out: % Retention on Solid Support
T15 construct: purchased DiscoveRx KINOMEscan
Outline: as §1

[1] = target: T16, ABL1(E255K)-phosphorylated (Homo sapiens, UniProt P00519, E255K); conditions: 1 µM i-CDK9; read-out: % Retention on Solid Support
T16 construct: purchased DiscoveRx KINOMEscan
Outline: as §1

BMPR2 = target: T17, BMPR2 (Homo sapiens, UniProt Q13873)
T17 construct: purchased DiscoveRx KINOMEscan
T17 sequence (Q13873 27-1038): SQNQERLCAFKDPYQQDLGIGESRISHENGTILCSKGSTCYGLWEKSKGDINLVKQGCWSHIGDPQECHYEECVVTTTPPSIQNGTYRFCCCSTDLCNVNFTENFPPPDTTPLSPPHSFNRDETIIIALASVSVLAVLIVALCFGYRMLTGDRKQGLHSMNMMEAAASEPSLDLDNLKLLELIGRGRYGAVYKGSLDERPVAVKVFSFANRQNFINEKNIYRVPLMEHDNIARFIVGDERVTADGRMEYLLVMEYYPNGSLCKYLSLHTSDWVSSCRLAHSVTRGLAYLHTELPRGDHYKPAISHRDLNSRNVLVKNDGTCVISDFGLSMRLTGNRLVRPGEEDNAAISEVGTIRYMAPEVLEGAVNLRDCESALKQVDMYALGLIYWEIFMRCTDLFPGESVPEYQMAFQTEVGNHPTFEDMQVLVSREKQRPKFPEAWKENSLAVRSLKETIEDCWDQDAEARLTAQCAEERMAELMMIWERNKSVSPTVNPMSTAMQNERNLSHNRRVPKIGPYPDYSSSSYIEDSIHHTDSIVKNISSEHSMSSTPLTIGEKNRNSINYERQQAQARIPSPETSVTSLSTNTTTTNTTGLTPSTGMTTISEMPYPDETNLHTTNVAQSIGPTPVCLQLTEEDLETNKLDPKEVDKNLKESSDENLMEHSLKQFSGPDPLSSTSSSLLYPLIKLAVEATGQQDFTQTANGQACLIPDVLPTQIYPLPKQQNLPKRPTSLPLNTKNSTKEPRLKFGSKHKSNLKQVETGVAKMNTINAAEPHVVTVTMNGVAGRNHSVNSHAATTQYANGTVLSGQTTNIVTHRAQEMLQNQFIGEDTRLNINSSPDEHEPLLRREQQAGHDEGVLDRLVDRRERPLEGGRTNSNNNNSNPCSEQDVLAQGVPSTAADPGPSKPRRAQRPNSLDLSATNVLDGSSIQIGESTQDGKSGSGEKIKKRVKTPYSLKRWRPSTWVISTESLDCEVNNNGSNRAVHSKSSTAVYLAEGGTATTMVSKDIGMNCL
Outline: as §1

SRPK3 = target: T18, SRPK3 (Homo sapiens, UniProt Q9UPE1); conditions: read-out: % Retention on Solid Support
T18 construct: purchased DiscoveRx KINOMEscan
Outline: as §1

INSRR = target: T19, INSRR (Homo sapiens, UniProt P14616); conditions: read-out: % Retention on Solid Support
T19 construct: purchased DiscoveRx KINOMEscan
Outline: as §1

ACVR2B = target: T20, ACVR2B (Homo sapiens, UniProt Q13705)
T20 construct: purchased DiscoveRx KINOMEscan
Outline: as §1

PIK3CA(M1043I) = target: T21, PIK3CA(M1043I) (Homo sapiens, UniProt P42336, M1043I); conditions: read-out: % Retention on Solid Support
T21 construct: purchased DiscoveRx KINOMEscan
Outline: as §1

ULK3 = target: T22, ULK3 (Homo sapiens, UniProt Q6PHR2)
T22 construct: purchased DiscoveRx KINOMEscan
T22 sequence (Q6PHR2 whole entry): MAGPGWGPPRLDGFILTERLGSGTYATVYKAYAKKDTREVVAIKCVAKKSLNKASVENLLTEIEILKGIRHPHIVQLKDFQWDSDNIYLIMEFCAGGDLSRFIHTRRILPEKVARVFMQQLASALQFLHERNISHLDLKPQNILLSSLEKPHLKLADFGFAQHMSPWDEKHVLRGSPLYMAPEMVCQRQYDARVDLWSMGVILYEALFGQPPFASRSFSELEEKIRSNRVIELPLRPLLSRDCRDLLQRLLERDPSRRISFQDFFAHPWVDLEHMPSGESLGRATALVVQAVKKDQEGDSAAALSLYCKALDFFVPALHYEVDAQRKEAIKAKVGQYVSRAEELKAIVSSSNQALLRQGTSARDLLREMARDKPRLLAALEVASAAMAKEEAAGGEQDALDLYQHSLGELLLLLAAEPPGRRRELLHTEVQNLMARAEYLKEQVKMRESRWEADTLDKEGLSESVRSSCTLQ
Outline: as §1

AAK1 = target: T23, AAK1 (Homo sapiens, UniProt Q2M2I8); conditions: read-out: % Retention on Solid Support
T23 construct: purchased DiscoveRx KINOMEscan
Outline: as §1

PIK3CA(H1047L) = target: T24, PIK3CA(H1047L) (Homo sapiens, UniProt P42336, H1047L); conditions: read-out: % Retention on Solid Support
T24 construct: purchased DiscoveRx KINOMEscan
Outline: as §1

Q: For `N[C@H]1CC[C@H](Nc2cc(-c3cccc(NCc4cccc(F)c4)n3)c(Cl)cn2)CC1` [i-CDK9, N2′-(trans-4-aminocyclohexyl)-5′-chloro-N6-(3-fluorobenzyl)-2,4′-bipyridine-2′,6-diamine], which “% Retention on Solid Support” value (EGFR; 1 µM i-CDK9) is on record?
A: 4.7%

Q: What about the “% Retention on Solid Support” value (EGFR; 10 µM i-CDK9) of the same compound?
A: 100%

Q: And the remaining binding at 1 µM (PIK3C2B; 1 µM i-CDK9)?
A: 100%

Q: What about the remaining binding at 10 µM (PIK3C2B; 10 µM i-CDK9) of the same compound?
A: 95%

Q: What about the remaining binding at 1 µM (LCK; 1 µM i-CDK9) of the same compound?
A: 100%

Q: And the remaining binding at 10 µM (LCK; 10 µM i-CDK9)?
A: 100%

Q: What about the remaining binding at 1 µM (CLK1; 1 µM i-CDK9) of the same compound?
A: 14%

Q: And the remaining binding at 10 µM (CLK1; 10 µM i-CDK9)?
A: 0.55%

Q: And the remaining binding at 1 µM (PKAC-alpha; 1 µM i-CDK9)?
A: 86%

Q: And the remaining binding at 10 µM (PKAC-alpha; 10 µM i-CDK9)?
A: 100%

Q: What about the remaining binding at 1 µM (MAST1; 1 µM i-CDK9) of the same compound?
A: 100%

Q: What about the remaining binding at 10 µM (MAST1; 10 µM i-CDK9) of the same compound?
A: 82%

Q: And the remaining binding at 1 µM (INSR; 1 µM i-CDK9)?
A: 100%

Q: And the remaining binding at 10 µM (INSR; 10 µM i-CDK9)?
A: 81%

Q: And the “% Retention on Solid Support” value (CSNK1G3; 1 µM i-CDK9)?
A: 91%

Q: What about the “% Retention on Solid Support” value (CSNK1G3; 10 µM i-CDK9) of the same compound?
A: 63%

Q: And the remaining binding at 1 µM (NEK1; 1 µM i-CDK9)?
A: 70%

Q: What about the remaining binding at 10 µM (NEK1; 10 µM i-CDK9) of the same compound?
A: 100%

Q: And the remaining binding at 1 µM (FLT3(D835H); 1 µM i-CDK9)?
A: 100%

Q: What about the remaining binding at 10 µM (FLT3(D835H); 10 µM i-CDK9) of the same compound?
A: 70%

Q: And the remaining binding at 1 µM (PIK3CA(E542K); 1 µM i-CDK9)?
A: 100%

Q: And the remaining binding at 10 µM (PIK3CA(E542K); 10 µM i-CDK9)?
A: 100%

Q: What about the remaining binding at 1 µM (FGFR1; 1 µM i-CDK9) of the same compound?
A: 100%

Q: And the remaining binding at 10 µM (FGFR1; 10 µM i-CDK9)?
A: 100%

Q: What about the remaining binding at 1 µM (TGFBR1; 1 µM i-CDK9) of the same compound?
A: 95%

Q: What about the remaining binding at 10 µM (TGFBR1; 10 µM i-CDK9) of the same compound?
A: 100%

Q: And the remaining binding at 1 µM (PLK1; 1 µM i-CDK9)?
A: 100%

Q: What about the remaining binding at 10 µM (PLK1; 10 µM i-CDK9) of the same compound?
A: 92%

Q: And the remaining binding at 1 µM (OSR1; 1 µM i-CDK9)?
A: 97%

Q: What about the remaining binding at 10 µM (OSR1; 10 µM i-CDK9) of the same compound?
A: 85%

Q: What about the remaining binding at 1 µM [1] of the same compound?
A: 74%

Q: What about the “% Retention on Solid Support” value (BMPR2; 1 µM i-CDK9) of the same compound?
A: 100%

Q: What about the “% Retention on Solid Support” value (BMPR2; 10 µM i-CDK9) of the same compound?
A: 100%

Q: What about the remaining binding at 1 µM (SRPK3; 1 µM i-CDK9) of the same compound?
A: 100%

Q: And the remaining binding at 10 µM (SRPK3; 10 µM i-CDK9)?
A: 100%

Q: What about the remaining binding at 1 µM (INSRR; 1 µM i-CDK9) of the same compound?
A: 92%

Q: And the remaining binding at 10 µM (INSRR; 10 µM i-CDK9)?
A: 97%

Q: And the “% Retention on Solid Support” value (ACVR2B; 1 µM i-CDK9)?
A: 100%

Q: What about the “% Retention on Solid Support” value (ACVR2B; 10 µM i-CDK9) of the same compound?
A: 85%

Q: And the remaining binding at 1 µM (PIK3CA(M1043I); 1 µM i-CDK9)?
A: 100%

Q: What about the remaining binding at 10 µM (PIK3CA(M1043I); 10 µM i-CDK9) of the same compound?
A: 75%

Q: What about the “% Retention on Solid Support” value (ULK3; 1 µM i-CDK9) of the same compound?
A: 94%

Q: And the “% Retention on Solid Support” value (ULK3; 10 µM i-CDK9)?
A: 88%

Q: And the remaining binding at 1 µM (AAK1; 1 µM i-CDK9)?
A: 100%

Q: What about the remaining binding at 10 µM (AAK1; 10 µM i-CDK9) of the same compound?
A: 100%

Q: What about the remaining binding at 1 µM (PIK3CA(H1047L); 1 µM i-CDK9) of the same compound?
A: 99%

Q: What about the remaining binding at 10 µM (PIK3CA(H1047L); 10 µM i-CDK9) of the same compound?
A: 100%
